Columns and labels:
[1] = system: Staphylococcus aureus CCM 4516/08; experiment: Screen against bacteria, MIC/IC80; format: cell-based; settings: SA
[2] = system: Staphylococcus aureus H 5996/08 Methiciline-resistant; experiment: Screen against bacteria, MIC/IC80; format: cell-based; settings: MRSA
[3] = system: Staphylococcus epidermidis H 6966/08; experiment: Screen against bacteria, MIC/IC80; format: cell-based; settings: SE
[4] = system: Enterococcus sp. J 14365/08; experiment: Screen against bacteria, MIC/IC80; format: cell-based; settings: EF
Escherichia coli CCM4517 = experiment: Screen against bacteria, MIC/IC80; format: cell-based; settings: EC
[5] = system: Klebsiella pneumoniae D 11750/08; experiment: Screen against bacteria, MIC/IC80; format: cell-based; settings: KP
[6] = system: Klebsiella pneumoniae J 14368/08 ESBL-positive; experiment: Screen against bacteria, MIC/IC80; format: cell-based; settings: KP-E
[7] = system: Pseudomonas aeruginosa CCM 1961; experiment: Screen against bacteria, MIC/IC80; format: cell-based; settings: PA
fungi and bacteria = format: cell-based
Experimental: All the 12 bromide salts and 12 octylsulfate CILs in the table below were screened against fungi and bacteria.
CILs with bromide as anion have been screened against the following Fungi and bacteria:
. […] MICs were determined twice and in duplicate.

[8] = system: Candida albicans ATCC 44859; experiment: In vitro antifungal activity, MIC by microdilution (NCCLS M27-A)
[9] = system: Candida albicans ATCC 90028; experiment: as above
Experimental: (§1) In vitro antifungal activities of the compounds were evaluated on the collection of fungal strains deposited at the Department of Biological and Medical Sciences, Faculty of Pharmacy, Charles University, Czech Republic. All the isolates were maintained on Sabouraud dextrose agar prior to being tested.
(§2) Minimum inhibitory concentrations (MICs) were determined by the microdilution format of the NCCLS M27-A guidelines. […] RPMI 1640 (Sevapharma, Prague) medium supplemented with L-glutamine and buffered with 0.165 M morpholinepropanesulfonic acid to pH 7.0 was used as the test medium. The wells of the microdilution tray contained 100 μl of the RPMI 1640 medium with 2-fold serial dilutions of the compounds (1000 to 0.24 μmol/l for the new compounds) and 100 μl of inoculum suspension. Fungal inoculum in RPMI 1640 was prepared to give a final concentration of 5×103±0.2 cfu·ml-1. The trays were incubated at 35° C. and MICs were read visually for filamentous fungi and photometrically for yeasts as an optical density (OD) at 540 nm after 24 h and 48 h. The MICs were defined as 80% inhibition of the growth of control. MICs were determined twice and in duplicate. The deviations from the usually obtained were no higher than the nearest concentration value up and down the dilution scale.

[10] = system: Candida parapsilosis ATCC 22019; experiment: as above; settings: CP
Candida krusei ATCC 6258 = experiment: as above
Experimental: as §1, §2

Candida krusei E28 = experiment: as above
Experimental: All the isolates were maintained on Sabouraud dextrose agar prior to being tested.
as §2

Candida tropicalis 156 = experiment: as above; settings: CT
Experimental: as §1, §2

Candida glabrata 20/l = experiment: as above; settings: CG
Experimental: as §1, §2

[11] = system: Candida lusitaniae 2446/l; experiment: as above; settings: CL
[12] = system: Aspergillus fumigatus 231; experiment: as above; settings: AF
Absidia corymbifera 272 = experiment: as above; settings: AC
Experimental: as §1, §2

[13] = system: Trichophyton mentagrophytes 445; experiment: as above; settings: TM
Experimental: as §1, §2

Compound	MIC/IC80 ([1]; 24 h) [µM]	MIC/IC80 ([1]; 48 h) [µM]	MIC/IC80 ([2]; 24 h) [µM]	MIC/IC80 ([2]; 48 h) [µM]	MIC/IC80 ([3]; 24 h) [µM]	MIC/IC80 ([3]; 48 h) [µM]	MIC/IC80 ([4]; 24 h) [µM]	MIC/IC80 ([4]; 48 h) [µM]	MIC/IC80 (Escherichia coli CCM4517; 24 h) [µM]	MIC/IC80 (Escherichia coli CCM4517; 48 h) [µM]	MIC/IC80 ([5]; 24 h) [µM]	MIC/IC80 ([5]; 48 h) [µM]	MIC/IC80 ([6]; 24 h) [µM]	MIC/IC80 ([6]; 48 h) [µM]	MIC/IC80 ([7]; 24 h) [µM]	MIC/IC80 ([7]; 48 h) [µM]	MIC/IC80 ([8]; CA1, 24 h) [µM]	MIC/IC80 ([8]; CA1, 48 h) [µM]	MIC/IC80 ([9]; CA2, 24 h) [µM]	MIC/IC80 ([9]; CA2, 48 h) [µM]	further results
R-3-methyl-1-[1-(pentoxycarbonyl)-1-phenylmethoxycarbonylmethyl]imidazolium octyl sulphate [KG303]	1000	1000	1000	>1000	500	1000	>1000	>1000	>1000	>1000	>1000	>1000	>1000	>1000	>1000	>1000	500	>1000	1000	>1000	toxicity / inhibition of the growth of fungi and bacteria (fungi and bacteria): inhibit the growth of fungi and bacteria; MIC/IC80 ([10]; 24 h): >1000 µM; MIC/IC80 ([10]; 48 h): >1000 µM; MIC/IC80 (Candida krusei ATCC 6258; CK1, 24 h): 1000 µM; MIC/IC80 (Candida krusei ATCC 6258; CK1, 48 h): >1000 µM; MIC/IC80 (Candida krusei E28; CK2, 24 h): 1000 µM; MIC/IC80 (Candida krusei E28; CK2, 48 h): >1000 µM; MIC/IC80 (Candida tropicalis 156; 24 h): >1000 µM; MIC/IC80 (Candida tropicalis 156; 48 h): >1000 µM; MIC/IC80 (Candida glabrata 20/l; 24 h): >1000 µM; MIC/IC80 (Candida glabrata 20/l; 48 h): >1000 µM; MIC/IC80 ([11]; 24 h): >1000 µM; MIC/IC80 ([11]; 48 h): >1000 µM; MIC/IC80 ([12]; 24 h): 1000 µM; MIC/IC80 ([12]; 48 h): 1000 µM; MIC/IC80 (Absidia corymbifera 272; 24 h): 1000 µM; MIC/IC80 (Absidia corymbifera 272; 48 h): 1000 µM; MIC/IC80 ([13]; 72 h): 250 µM; MIC/IC80 ([13]; 120 h): 500 µM
COC(=O)[C@H](OC(=O)C[n+]1ccn(C)c1)c1ccccc1 [KG90, R-3-methyl-1-[1-(methoxycarbonyl)-1-phenylmethoxycarbonylmethyl]imidazolium bromide]	>1000	>1000	>1000	>1000	>1000	>1000	>1000	>1000	>1000	>1000	>1000	>1000	>1000	>1000	>1000	>1000	>1000	>1000	>1000	>1000	MIC/IC80 ([10]; 24 h): >1000 µM; MIC/IC80 ([10]; 48 h): >1000 µM; MIC/IC80 (Candida krusei ATCC 6258; CK1, 24 h): >1000 µM; MIC/IC80 (Candida krusei ATCC 6258; CK1, 48 h): >1000 µM; MIC/IC80 (Candida krusei E28; CK2, 24 h): >1000 µM; MIC/IC80 (Candida krusei E28; CK2, 48 h): >1000 µM; MIC/IC80 (Candida tropicalis 156; 24 h): >1000 µM; MIC/IC80 (Candida tropicalis 156; 48 h): >1000 µM; MIC/IC80 (Candida glabrata 20/l; 24 h): >1000 µM; MIC/IC80 (Candida glabrata 20/l; 48 h): >1000 µM; MIC/IC80 ([11]; 24 h): >1000 µM; MIC/IC80 ([11]; 48 h): >1000 µM; MIC/IC80 ([12]; 24 h): >1000 µM; MIC/IC80 ([12]; 48 h): >1000 µM; MIC/IC80 (Absidia corymbifera 272; 24 h): >1000 µM; MIC/IC80 (Absidia corymbifera 272; 48 h): >1000 µM; MIC/IC80 ([13]; 72 h): >1000 µM; MIC/IC80 ([13]; 120 h): >1000 µM
CCOCCOC(=O)[C@H](OC(=O)C[n+]1ccn(C)c1)c1ccccc1 [KG835, R-3-methyl-1-[1-(ethoxyethoxycarbonyl)-1-phenylmethoxycarbonylmethyl]imidazolium bromide]	>1000	>1000	>1000	>1000	>1000	>1000	>1000	>1000	>1000	>1000	>1000	>1000	>1000	>1000	>1000	>1000	>1000	>1000	>1000	>1000	MIC/IC80 ([10]; 24 h): >1000 µM; MIC/IC80 ([10]; 48 h): >1000 µM; MIC/IC80 (Candida krusei ATCC 6258; CK1, 24 h): >1000 µM; MIC/IC80 (Candida krusei ATCC 6258; CK1, 48 h): >1000 µM; MIC/IC80 (Candida krusei E28; CK2, 24 h): >1000 µM; MIC/IC80 (Candida krusei E28; CK2, 48 h): >1000 µM; MIC/IC80 (Candida tropicalis 156; 24 h): >1000 µM; MIC/IC80 (Candida tropicalis 156; 48 h): >1000 µM; MIC/IC80 (Candida glabrata 20/l; 24 h): >1000 µM; MIC/IC80 (Candida glabrata 20/l; 48 h): >1000 µM; MIC/IC80 ([11]; 24 h): >1000 µM; MIC/IC80 ([11]; 48 h): >1000 µM; MIC/IC80 ([12]; 24 h): >1000 µM; MIC/IC80 ([12]; 48 h): >1000 µM; MIC/IC80 (Absidia corymbifera 272; 24 h): >1000 µM; MIC/IC80 (Absidia corymbifera 272; 48 h): >1000 µM; MIC/IC80 ([13]; 72 h): >1000 µM; MIC/IC80 ([13]; 120 h): >1000 µM
CCCCCOC(=O)C(OC(=O)Cn1cc[n+](C)c1)c1ccccc1.[Br-] (stereo not drawn) [KG816, RS-3-methyl-1-[1-(pentoxycarbonyl)-1-phenylmethoxycarbonylmethyl]imidazolium bromide]	1000	1000	>1000	>1000	>1000	>1000	>1000	>1000	>1000	>1000	>1000	>1000	>1000	>1000	>1000	>1000	500	1000	1000	>1000	MIC/IC80 ([10]; 24 h): >1000 µM; MIC/IC80 ([10]; 48 h): >1000 µM; MIC/IC80 (Candida krusei ATCC 6258; CK1, 24 h): 1000 µM; MIC/IC80 (Candida krusei ATCC 6258; CK1, 48 h): 1000 µM; MIC/IC80 (Candida krusei E28; CK2, 24 h): 1000 µM; MIC/IC80 (Candida krusei E28; CK2, 48 h): >1000 µM; MIC/IC80 (Candida tropicalis 156; 24 h): 1000 µM; MIC/IC80 (Candida tropicalis 156; 48 h): >1000 µM; MIC/IC80 (Candida glabrata 20/l; 24 h): 1000 µM; MIC/IC80 (Candida glabrata 20/l; 48 h): 1000 µM; MIC/IC80 ([11]; 24 h): >1000 µM; MIC/IC80 ([11]; 48 h): >1000 µM; MIC/IC80 ([12]; 24 h): 1000 µM; MIC/IC80 ([12]; 48 h): 1000 µM; MIC/IC80 (Absidia corymbifera 272; 24 h): 1000 µM; MIC/IC80 (Absidia corymbifera 272; 48 h): 1000 µM; MIC/IC80 ([13]; 72 h): 500 µM; MIC/IC80 ([13]; 120 h): 500 µM
